# Assay results taken from patent US20200345846A1, “CORROLE COMPOSITIONS” (TECHNION RESEARCH & DEVELOPMENT FOUNDATION LIMITED, priority 2017, published 2020).
# Test system: DU-145 prostate cancer cell line
# Assay: FACS analysis with annexin V-FITC kit (apoptosis)
# Format: cell-based, human
# Conditions: analysis after 4 h
# Protocol: Cells (DU-145) were seeded in 6-well microtiter plates (5×10^4 cells/mL; 3 mL per well) 24 h before the addition of assigned compounds/albumin particles. At the time of drug treatment, stock solutions of compounds were diluted to 10-fold the desired final test concentrations with EMEM medium. Aliquots of 300 μL of these diluted solutions were added to the appropriate microtiter wells containing 2700 μL of medium, resulting in the required final drug concentrations (according to assigned concentration). The final concentration of DMSO (given that the compound required DMSO for solvation) in test culture was <1%. […] Following 24-72 h of exposure at 37° C., cells were re-suspended with trypsin into PBS pH 7.2 and pelleted at 3000 rpm for 5 min. Samples were washed under PBS×3 times. Samples were taken for measurement using a BD LSR-II Analyzer supported with BD FACSDiVa™ Software Version 6.1 for data analysis. Corrole fluorescence was measured using appropriate filters for excitation (405 nm, DAPI) and emission (Ds-RED). FIGS. 15A-F present FACS analysis of DU-145 prostate cancer cell line treated with an annexin V-FITC kit after 4 h incubation with: HSA control; FIGS. 15B-F present 5-Ga HSA NP's 2, 5, 10, 15, 20 μM respectively. […] Analysis of β-lapachone was done after 4 h since it induces apoptosis faster.
smiles,measurement,value
"CC1(C)CCC2=C(O1)c1ccccc1C(=O)C2=O [Corrole 0-lapachone, β-lapachone]",shift of annexin V-FITC distribution curve,strong shift of the distribution curve towards stronger mean fluorescence
